The values that follow are results of earlier work, collected in patent publication US20110077395A1, “INHIBITORS OF 11-BETA HYDROXYSTEROID DEHYDROGENASE TYPE I” (Bristol-Myers Squibb Company, priority 2005, published 2011).

The test system of this data set is hepatic glucose production. The settings on record: mildly overweight individuals with type 2 diabetes, seven days, versus placebo.

For the compound `CC1(C)[C@@H](OC(=O)CCC(=O)O)CC[C@]2(C)[C@H]3C(=O)C=C4[C@@H]5C[C@@](C)(C(=O)O)CC[C@]5(C)CC[C@@]4(C)[C@]3(C)CC[C@@H]12` [carbenoxolone], the hepatic glucose production entry is on record as “decrease in hepatic glucose production”.
